Earlier results, collected in US20050019354A1, “Topical benfotiamine treatments” (priority 2003, published 2005).

Legend:
transketolase = target: T1, transketolase (Homo sapiens, UniProt P29401)
T1 sequence (P29401 1-623): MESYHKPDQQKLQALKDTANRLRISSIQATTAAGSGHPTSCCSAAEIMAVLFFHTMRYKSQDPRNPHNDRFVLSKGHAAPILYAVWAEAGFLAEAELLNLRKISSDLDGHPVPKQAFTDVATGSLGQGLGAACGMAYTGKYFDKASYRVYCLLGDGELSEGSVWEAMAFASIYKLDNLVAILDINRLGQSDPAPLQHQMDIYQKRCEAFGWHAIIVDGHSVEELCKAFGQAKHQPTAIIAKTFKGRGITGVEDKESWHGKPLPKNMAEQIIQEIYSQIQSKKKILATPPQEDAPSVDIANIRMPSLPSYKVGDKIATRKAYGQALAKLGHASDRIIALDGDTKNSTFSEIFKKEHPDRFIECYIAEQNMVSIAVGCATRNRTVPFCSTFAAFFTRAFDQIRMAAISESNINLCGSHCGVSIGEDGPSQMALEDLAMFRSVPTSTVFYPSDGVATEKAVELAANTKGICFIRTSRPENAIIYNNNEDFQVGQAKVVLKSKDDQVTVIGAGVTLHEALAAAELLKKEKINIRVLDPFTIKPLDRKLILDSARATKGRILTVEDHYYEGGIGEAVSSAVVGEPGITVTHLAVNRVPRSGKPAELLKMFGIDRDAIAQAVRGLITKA

[1] = system: retinopathy in diabetic rats

increase of transketolase activity (transketolase): 300%
Structure (SMILES): C/C(=C(\CCOP(=O)(O)O)SC(=O)c1ccccc1)N(C=O)Cc1cnc(C)nc1N [Benfotiamine, S-Benzoylthiamine-O-Monophosphate]
effect on retinopathy [1]: prevented retinopathy
